# Laboratory results published in ChEMBL document CHEMBL1127891, “Benzopyran potassium channel activators related to cromakalim - heterocyclic amide replacements at position 4” (1994).
# Tests used:
# Type in all cases: functional
# [1] = tested on: Rattus norvegicus; test: Tested for antihypertensive activity expressed as max fall in BP in spontaneously hypertensive rats (SHR), at the dose of 0.1 mg/kg
# [2] = tested on: Rattus norvegicus; test: Tested for antihypertensive activity expressed as max fall in BP in spontaneously hypertensive rats (SHR), at the dose of 0.3 mg/kg
# [3] = tested on: Rattus norvegicus; test: Tested for antihypertensive activity expressed as max fall in BP in spontaneously hypertensive rats (SHR), at the dose of 1 mg/kg
# [4] = tested on: Rattus norvegicus; test: Tested for antihypertensive activity expressed as max fall in BP in spontaneously hypertensive rats (SHR), at the dose of 10.0 mg/kg
# [5] = tested on: Rattus norvegicus; test: Tested for antihypertensive activity expressed as max fall in BP in spontaneously hypertensive rats (SHR), at the dose of 3.0 mg/kg
SMILES,Max fall in blood pressure [2],Max fall in blood pressure [3],Max fall in blood pressure [5],also measured
Cn1nc(N)nc1N[C@@H]1c2cc(C#N)ccc2OC(C)(C)[C@H]1O,56,–,–,Max fall in blood pressure [1]: 30
Cn1ncnc1N[C@@H]1c2cc(C#N)ccc2OC(C)(C)[C@H]1O,22,35,–,–
Cn1nc(N[C@@H]2c3cc(C#N)ccc3OC(C)(C)[C@H]2O)nc1N,–,–,–,Max fall in blood pressure [4]: 33
Cc1nc(N[C@@H]2c3cc(C#N)ccc3OC(C)(C)[C@H]2O)n(C)n1,–,22,37,–
CC1(C)Oc2ccc(C#N)cc2[C@@H](Nc2n[s+]([O-])nc2N)[C@@H]1O (some centres not stated),–,–,20,–
CC1(C)Oc2ccc(C#N)cc2[C@@H](Nc2n[nH]c(N)n2)[C@@H]1O,–,–,19,–
C/N=C(\NC#N)N[C@@H]1c2cc(C#N)ccc2OC(C)(C)[C@H]1O,16,41,–,–
CC1(C)Oc2ccc(C#N)cc2[C@@H](Nc2nc(N)no2)[C@@H]1O,–,16,32,–
Cc1noc(N[C@@H]2c3cc(C#N)ccc3OC(C)(C)[C@H]2O)n1,–,–,31,–
CC1(C)Oc2ccc(C#N)cc2[C@@H](N2CCCC2=O)[C@@H]1O [CROMAKALIM],39,47,–,Max fall in blood pressure [1]: 13
